# What was measured:
# Bacillus subtilis [1] = assay: Inhibition of protein synthesis in Bacillus subtilis assessed as incorporation of [3H]amino acid at 8 ug/mL by LKB Betaplate scintillation counter relative to control; format: functional; set-up: scale not given: the % may be the effect or the level left
# Bacillus subtilis [2] = assay: Inhibition of RNA synthesis in Bacillus subtilis assessed as [3H]uridine uptake at 2 ug/mL by LKB Betaplate scintillation counter relative to control; format: functional; set-up: scale not given: the % may be the effect or the level left
# Bacillus subtilis [3] = assay: Inhibition of DNA synthesis in Bacillus subtilis assessed as incorporation of [3H]thymidine at 4 ug/mL by LKB Betaplate scintillation counter relative to control; format: functional; set-up: scale not given: the % may be the effect or the level left
# Bacillus subtilis [4] = assay: Antimicrobial activity against Bacillus subtilis 327 after 18 hrs by microbroth dilution method; format: functional
# Bacillus subtilis [5] = assay: Inhibition of protein synthesis in Bacillus subtilis assessed as incorporation of [3H]amino acid at 2 ug/mL by LKB Betaplate scintillation counter relative to control; format: functional; set-up: scale not given: the % may be the effect or the level left
# Bacillus subtilis [6] = assay: Inhibition of DNA synthesis in Bacillus subtilis assessed as incorporation of [3H]thymidine at 2 ug/mL by LKB Betaplate scintillation counter relative to control; format: functional; set-up: scale not given: the % may be the effect or the level left
# [7] = Toxicity in human RBC assessed as hemolysis at 8 ug/ml after 2 hrs; format: cell-based, Erythrocyte; conditions: red blood cells (RBC), read-out: Activity
# Bacillus subtilis [8] = assay: Inhibition of DNA synthesis in Bacillus subtilis assessed as [3H]thymidine uptake at 4 ug/mL by LKB Betaplate scintillation counter relative to control; format: functional; set-up: scale not given: the % may be the effect or the level left
# Bacillus subtilis [9] = assay: Inhibition of DNA synthesis in Bacillus subtilis assessed as [3H]thymidine uptake at 8 ug/mL by LKB Betaplate scintillation counter relative to control; format: functional; set-up: scale not given: the % may be the effect or the level left
# [10] = Toxicity in human RBC assessed as hemolysis at 0.5 ug/ml after 2 hrs; format: cell-based, Erythrocyte; conditions: red blood cells (RBC), read-out: Activity
# [11] = Toxicity in human RBC assessed as hemolysis at 128 ug/ml after 2 hrs; format: cell-based, Erythrocyte; conditions: red blood cells (RBC), read-out: Activity
# [12] = Toxicity in human RBC assessed as hemolysis at 4 ug/ml after 2 hrs; format: cell-based, Erythrocyte; conditions: red blood cells (RBC), read-out: Activity
# Bacillus subtilis [13] = assay: Inhibition of DNA synthesis in Bacillus subtilis assessed as [3H]thymidine uptake at 2 ug/mL by LKB Betaplate scintillation counter relative to control; format: functional; set-up: scale not given: the % may be the effect or the level left
# [14] = Toxicity in human RBC assessed as hemolysis at 64 ug/ml after 2 hrs; format: cell-based, Erythrocyte; conditions: red blood cells (RBC), read-out: Activity
# Bacillus subtilis [15] = assay: Inhibition of RNA synthesis in Bacillus subtilis assessed as [3H]uridine uptake at 8 ug/mL by LKB Betaplate scintillation counter relative to control; format: functional; set-up: scale not given: the % may be the effect or the level left
# Staphylococcus aureus [16] = assay: Antimicrobial activity against methicillin-resistant Staphylococcus aureus 310 after 18 hrs by microbroth dilution method; format: functional
# Bacillus subtilis [17] = assay: Inhibition of protein synthesis in Bacillus subtilis assessed as [3H]amino acid uptake at 4 ug/mL by LKB Betaplate scintillation counter relative to control; format: functional; set-up: scale not given: the % may be the effect or the level left
# Bacillus subtilis [18] = assay: Inhibition of protein synthesis in Bacillus subtilis assessed as [3H]amino acid uptake at 1 ug/mL by LKB Betaplate scintillation counter relative to control; format: functional; set-up: scale not given: the % may be the effect or the level left
# [19] = Toxicity in human RBC assessed as hemolysis at 32 ug/ml after 2 hrs; format: cell-based, Erythrocyte; conditions: red blood cells (RBC), read-out: Activity
# Bacillus subtilis [20] = assay: Inhibition of RNA synthesis in Bacillus subtilis assessed as incorporation of [3H]uridine at 1 ug/mL by LKB Betaplate scintillation counter relative to control; format: functional; set-up: scale not given: the % may be the effect or the level left
# Bacillus subtilis [21] = assay: Inhibition of DNA synthesis in Bacillus subtilis assessed as incorporation of [3H]thymidine at 1 ug/mL by LKB Betaplate scintillation counter relative to control; format: functional; set-up: scale not given: the % may be the effect or the level left
# Bacillus subtilis [22] = assay: Inhibition of DNA synthesis in Bacillus subtilis assessed as incorporation of [3H]thymidine at 8 ug/mL by LKB Betaplate scintillation counter relative to control; format: functional; set-up: scale not given: the % may be the effect or the level left
# Bacillus subtilis [23] = assay: Inhibition of protein synthesis in Bacillus subtilis assessed as incorporation of [3H]amino acid at 1 ug/mL by LKB Betaplate scintillation counter relative to control; format: functional; set-up: scale not given: the % may be the effect or the level left
# Bacillus subtilis [24] = assay: Inhibition of RNA synthesis in Bacillus subtilis assessed as incorporation of [3H]uridine at 8 ug/mL by LKB Betaplate scintillation counter relative to control; format: functional; set-up: scale not given: the % may be the effect or the level left
# Bacillus subtilis [25] = assay: Inhibition of protein synthesis in Bacillus subtilis assessed as [3H]amino acid uptake at 2 ug/mL by LKB Betaplate scintillation counter relative to control; format: functional; set-up: scale not given: the % may be the effect or the level left
# [26] = Toxicity in human RBC assessed as hemolysis at 1 ug/ml after 2 hrs; format: cell-based, Erythrocyte; conditions: red blood cells (RBC), read-out: Activity
# Bacillus subtilis [27] = assay: Inhibition of RNA synthesis in Bacillus subtilis assessed as [3H]uridine uptake at 4 ug/mL by LKB Betaplate scintillation counter relative to control; format: functional; set-up: scale not given: the % may be the effect or the level left
# Bacillus subtilis [28] = assay: Inhibition of protein synthesis in Bacillus subtilis assessed as incorporation of [3H]amino acid at 4 ug/mL by LKB Betaplate scintillation counter relative to control; format: functional; set-up: scale not given: the % may be the effect or the level left
# Bacillus subtilis [29] = assay: Inhibition of RNA synthesis in Bacillus subtilis assessed as [3H]uridine uptake at 1 ug/mL by LKB Betaplate scintillation counter relative to control; format: functional; set-up: scale not given: the % may be the effect or the level left
# Escherichia coli = assay: Antimicrobial activity against Escherichia coli imp 389 after 18 hrs by microbroth dilution method; format: functional
# [30] = Toxicity in human RBC assessed as hemolysis at 16 ug/ml after 2 hrs; format: cell-based, Erythrocyte; conditions: red blood cells (RBC), read-out: Activity
# Bacillus subtilis [31] = assay: Inhibition of RNA synthesis in Bacillus subtilis assessed as incorporation of [3H]uridine at 2 ug/mL by LKB Betaplate scintillation counter relative to control; format: functional; set-up: scale not given: the % may be the effect or the level left
# Bacillus subtilis [32] = assay: Inhibition of DNA synthesis in Bacillus subtilis assessed as [3H]thymidine uptake at 1 ug/mL by LKB Betaplate scintillation counter relative to control; format: functional; set-up: scale not given: the % may be the effect or the level left
# Staphylococcus aureus [33] = assay: Antimicrobial activity against Staphylococcus aureus infected in CD1 mouse administered subcutaneously after 30 mins infection measured after 7 days; format: functional; conditions: sc
# Bacillus subtilis [34] = assay: Inhibition of RNA synthesis in Bacillus subtilis assessed as incorporation of [3H]uridine at 4 ug/mL by LKB Betaplate scintillation counter relative to control; format: functional; set-up: scale not given: the % may be the effect or the level left
# Staphylococcus aureus [35] = assay: Antimicrobial activity against methicillin-susceptible Staphylococcus aureus 375 after 18 hrs by microbroth dilution method; format: functional
# Bacillus subtilis [36] = assay: Inhibition of protein synthesis in Bacillus subtilis assessed as [3H]amino acid uptake at 8 ug/mL by LKB Betaplate scintillation counter relative to control; format: functional; set-up: scale not given: the % may be the effect or the level left
# [37] = Toxicity in human RBC assessed as hemolysis at 2 ug/ml after 2 hrs; format: cell-based, Erythrocyte; conditions: red blood cells (RBC), read-out: Activity
# Bacillus subtilis [38] = assay: Inhibition of DNA synthesis in Bacillus subtilis assessed as [3H]thymidine uptake at 0.25 ug/mL by LKB Betaplate scintillation counter relative to control; format: functional; set-up: scale not given: the % may be the effect or the level left
# Bacillus subtilis [39] = assay: Inhibition of RNA synthesis in Bacillus subtilis assessed as incorporation of [3H]uridine at 0.25 ug/mL by LKB Betaplate scintillation counter relative to control; format: functional; set-up: scale not given: the % may be the effect or the level left
# Bacillus subtilis [40] = assay: Inhibition of RNA synthesis in Bacillus subtilis assessed as [3H]uridine uptake at 0.25 ug/mL by LKB Betaplate scintillation counter relative to control; format: functional; set-up: scale not given: the % may be the effect or the level left
# Bacillus subtilis [41] = assay: Inhibition of protein synthesis in Bacillus subtilis assessed as incorporation of [3H]amino acid at 0.25 ug/mL by LKB Betaplate scintillation counter relative to control; format: functional; set-up: scale not given: the % may be the effect or the level left
# Bacillus subtilis [42] = assay: Inhibition of DNA synthesis in Bacillus subtilis assessed as incorporation of [3H]thymidine at 0.25 ug/mL by LKB Betaplate scintillation counter relative to control; format: functional; set-up: scale not given: the % may be the effect or the level left
# Bacillus subtilis [43] = assay: Inhibition of protein synthesis in Bacillus subtilis assessed as [3H]amino acid uptake at 0.25 ug/mL by LKB Betaplate scintillation counter relative to control; format: functional; set-up: scale not given: the % may be the effect or the level left
# [44] = Ratio of LD50 for CD1 mouse to ED50 for Staphylococcus aureus
smiles,measurement,setting,value
C=C[C@]1(C)CC=C2C(CC[C@@H]3[C@](C)(CO)CCC[C@@]23C)C1 (stereo partly drawn),Activity,Bacillus subtilis [1],2%
same,Activity,Bacillus subtilis [2],1%
same,Activity,Bacillus subtilis [3],1%
same,MIC,Bacillus subtilis [4],4 µg/mL
same,Activity,Bacillus subtilis [5],4%
same,Activity,Bacillus subtilis [6],2%
same,"hemolysis at 2 h, 8 ug/ml",[7],3.32%
same,Activity,Bacillus subtilis [8],1%
same,Activity,Bacillus subtilis [9],1%
same,"hemolysis at 2 h, 0.5 ug/ml",[10],0.3%
same,"hemolysis at 2 h, 128 ug/ml",[11],88.1%
same,"hemolysis at 2 h, 4 ug/ml",[12],0.3%
same,Activity,Bacillus subtilis [13],2%
same,"hemolysis at 2 h, 64 ug/ml",[14],80.2%
same,Activity,Bacillus subtilis [15],0%
same,MIC,Staphylococcus aureus [16],2 µg/mL
same,Activity,Bacillus subtilis [17],1%
same,Activity,Bacillus subtilis [18],2%
same,"hemolysis at 2 h, 32 ug/ml",[19],71.7%
same,Activity,Bacillus subtilis [20],2%
same,Activity,Bacillus subtilis [21],20%
same,Activity,Bacillus subtilis [22],1%
same,Activity,Bacillus subtilis [23],36%
same,Activity,Bacillus subtilis [24],0%
same,Activity,Bacillus subtilis [25],1%
same,"hemolysis at 2 h, 1 ug/ml",[26],0.08%
same,Activity,Bacillus subtilis [27],0%
same,Activity,Bacillus subtilis [28],2%
same,Activity,Bacillus subtilis [29],1%
same,MIC,Escherichia coli,> 128 µg/mL
same,"hemolysis at 2 h, 16 ug/ml",[30],14.8%
same,Activity,Bacillus subtilis [31],1%
same,Activity,Bacillus subtilis [32],13%
same,ED50,Staphylococcus aureus [33],> 64 mg/kg
same,Activity,Bacillus subtilis [34],0%
same,MIC,Staphylococcus aureus [35],2 µg/mL
same,Activity,Bacillus subtilis [36],1%
same,"hemolysis at 2 h, 2 ug/ml",[37],0.45%
O=C(O)c1cn(C2CC2)c2cc(N3CCNCC3)c(F)cc2c1=O [CIPROFLOXACIN],Activity,Bacillus subtilis [38],73%
same,Activity,Bacillus subtilis [39],94%
same,Activity,Bacillus subtilis [40],100%
same,Activity,Bacillus subtilis [41],94%
same,Activity,Bacillus subtilis [42],61%
same,Activity,Bacillus subtilis [43],104%
CC(C)c1ccc2c(c1)CC[C@H]1[C@](C)(CO)CCC[C@]21C [POMIFERIN A],MIC,Bacillus subtilis [4],8 µg/mL
same,MIC,Staphylococcus aureus [16],4 µg/mL
same,MIC,Escherichia coli,> 128 µg/mL
same,MIC,Staphylococcus aureus [35],4 µg/mL
CC1(C)CC[C@]2(C(=O)O)CC[C@]3(C)C(=CC[C@@H]4[C@@]5(C)CC[C@@H](O)C(C)(C)[C@@H]5CC[C@]43C)[C@@H]2C1,MIC,Bacillus subtilis [4],64 µg/mL
same,MIC,Escherichia coli,> 128 µg/mL
same,MIC,Staphylococcus aureus [35],> 128 µg/mL
CN[C@H](CC(C)C)C(=O)N[C@H]1C(=O)N[C@@H](CC(N)=O)C(=O)N[C@H]2C(=O)N[C@H]3C(=O)N[C@H](C(=O)N[C@H](C(=O)O)c4cc(O)cc(O)c4-c4cc3ccc4O)[C@H](O)c3ccc(c(Cl)c3)Oc3cc2cc(c3O[C@@H]2O[C@H](CO)[C@@H](O)[C@H](O)[C@H]2O[C@H]2C[C@](C)(N)[C@H](O)[C@H](C)O2)Oc2ccc(cc2Cl)[C@H]1O [VANCOMYCIN],Ratio LD50/ED50,[44],> 1024
same,ED50,Staphylococcus aureus [33],1 mg/kg
CO[C@H]1/C=C/O[C@@]2(C)Oc3c(C)c(O)c4c(O)c(c(/C=N/N5CCN(C)CC5)c(O)c4c3C2=O)NC(=O)/C(C)=C\C=C\[C@H](C)[C@H](O)[C@@H](C)[C@@H](O)[C@@H](C)[C@H](OC(C)=O)[C@@H]1C [RIFAMPIN],Activity,Bacillus subtilis [38],94%
same,Activity,Bacillus subtilis [39],29%
same,Activity,Bacillus subtilis [40],143%
same,Activity,Bacillus subtilis [41],25%
same,Activity,Bacillus subtilis [42],108%
same,Activity,Bacillus subtilis [43],90%
C=C[C@]1(C)CCC2=C(CC[C@@H]3[C@](C)(CO)CCC[C@@]23C)C1,MIC,Bacillus subtilis [4],32 µg/mL
same,MIC,Staphylococcus aureus [16],64 µg/mL
same,MIC,Escherichia coli,> 128 µg/mL
same,MIC,Staphylococcus aureus [35],32 µg/mL

# Reference: ChEMBL document CHEMBL1159340, “Antibacterial diterpenes from Calceolaria pinifolia” (J Nat Prod, 2003)
